Measured values published in patent US20250154169A1, “COMPOUNDS AND METHODS FOR MODULATING SPLICING” (REMIX THERAPEUTICS INC., priority 2021, published 2025).
Like-named read-outs stand apart in the source and are kept apart here.

Legend:
Assay type in all cases: cell-based, human
HTT mRNA [1] = experiment: Splicing RT-qPCR gene panel, HTT canonical junction (CJ) mRNA; conditions: Tables 4A/4B, read-out: HTT (IC50, decrease in CJ mRNA, gene panel)
Method in brief: (§1)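 Canonical-junction mRNA levels were quantified by RT-qPCR in lysates, using ΔΔCt against a housekeeping gene (GAPDH, GUSB or PPIA) and DMSO wells, expressed as percentage response. Cells (A673 or K562) had been exposed for 24 h at 37° C. to 11 three-fold compound concentrations up to 10 uM, DMSO ≤0.25%.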

SMN2 mRNA = experiment: Splicing RT-qPCR gene panel, SMN2 canonical junction (CJ) mRNA; conditions: Tables 4A/4B, read-out: SMN2 (IC50, decrease in CJ mRNA, gene panel)
Method in brief: as §1

HTT mRNA [2] = experiment: Splicing RT-qPCR assay, HTT canonical (CJ) and alternative (AJ) junction mRNA
Method in brief: (§2)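 A673 or K562 cells were treated 24 h at 37 °C with an 11-point 3-fold compound dilution series (top 10 uM, DMSO ≤0.25%). Lysates went to one-step RT-qPCR measuring canonical (CJ) and alternative-exon (AJ) junction transcripts, normalized to GAPDH, GUSB or PPIA.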

MYB mRNA = experiment: Splicing RT-qPCR assay, MYB canonical (CJ) and alternative (AJ) junction mRNA
Method in brief: as §2

Target C mRNA = experiment: Splicing RT-qPCR gene panel, Target C canonical junction (CJ) mRNA; conditions: Tables 4A/4B, read-out: Target C (IC50, decrease in CJ mRNA, gene panel)
Method in brief: as §1

[3] = Homo sapiens, 24 h, A673 or K562 cells, 24 hours compound treatment, read-out: HTT CJ (IC50, decrease in canonical junction mRNA)
[4] = Homo sapiens, A673 or K562 cells, 24 hours compound treatment, read-out: HTT AJ (AC50, increase in alternative junction mRNA)
[5] = Homo sapiens, 24 h, A673 or K562 cells, 24 hours compound treatment, RT-qPCR, read-out: MYB AJ (AC50, increase in alternative junction mRNA)
[6] = Homo sapiens, 24 h, A673 or K562 cells, 24 hours compound treatment, RT-qPCR, read-out: MYB CJ (IC50, decrease in canonical junction mRNA)
[7] = Homo sapiens, Tables 4A/4B, canonical junction qPCR panel, read-out: MYB (IC50, decrease in CJ mRNA, gene panel)
[8] = Homo sapiens, Table 3B, alternative junction mRNA, read-out: HTT AJ (AC50, increase in AJ mRNA)
[9] = Homo sapiens, Table 3B, canonical junction mRNA, read-out: HTT CJ (IC50, decrease in CJ mRNA)
[10] = Homo sapiens, Table 3B, canonical junction mRNA, RT-qPCR, read-out: MYB CJ (IC50, decrease in CJ mRNA)
[11] = Homo sapiens, Table 3B, alternative junction mRNA, RT-qPCR, read-out: MYB AJ (AC50, increase in AJ mRNA)

For CCn1cc2c(N3C[C@@H](C)N[C@@H](C)C3)cc(F)c(C(=O)Nc3cc(F)c4nc(C)cn4c3)c2n1 [Compound 475, 4-[(3R,5S)-3,5-dimethylpiperazin-1-yl]-2-ethyl-6-fluoro-N-{8-fluoro-2-methylimidazo[1,2-a]pyridin-6-yl}indazole-7-carboxamide; trifluoroacetic acid], the IC50 (HTT mRNA [1]; Homo sapiens) was 100 to 1000 nM, the IC50 (SMN2 mRNA; Homo sapiens) was under 100 nM and the IC50 (HTT mRNA [2]; [3]) was 100 to 1000 nM. For the same molecule, the AC50 (HTT mRNA [2]; [4]) was 100 to 1000 nM, the AC50 (MYB mRNA; [5]) was under 100 nM and the IC50 (MYB mRNA; [6]) was under 100 nM. It also gave an IC50 (MYB mRNA; [7]) of under 100 nM and an IC50 (Target C mRNA; Homo sapiens) of 1000 to 10000 nM.
In the case of CCn1cc2c(NC3CCNCC3)ccc(C(=O)Nc3cc(F)c4nc(C)cn4c3)c2n1 [Compound 476, 2-ethyl-N-{8-fluoro-2-methylimidazo[1,2-a]pyridin-6-yl}-4-(piperidin-4-ylamino) indazole-7-carboxamide], the IC50 (HTT mRNA [1]; Homo sapiens) is reported as 100 to 1000 nM, the IC50 (SMN2 mRNA; Homo sapiens) is reported as 100 to 1000 nM and the IC50 (HTT mRNA [2]; [3]) is reported as 100 to 1000 nM. For the same molecule, the AC50 (HTT mRNA [2]; [4]) was 1000 to 10000 nM, the AC50 (MYB mRNA; [5]) was 1000 to 10000 nM and the IC50 (MYB mRNA; [6]) was 1000 to 10000 nM. The IC50 (MYB mRNA; [7]) was 1000 to 10000 nM and the IC50 (Target C mRNA; Homo sapiens) was 1000 to 10000 nM.
CCn1cc2c(N3CC4(CNC4)C3)ccc(C(=O)Nc3cc(F)c4nc(C)cn4c3)c2n1 [Compound 477, 4-{2,6-diazaspiro[3.3]heptan-2-yl}-2-ethyl-N-{8-fluoro-2-methylimidazo[1,2-a]pyridin-6-yl}indazole-7-carboxamide] showed an IC50 (HTT mRNA [1]; Homo sapiens) of 1000 to 10000 nM, an IC50 (SMN2 mRNA; Homo sapiens) of 100 to 1000 nM and an IC50 (HTT mRNA [2]; [3]) of 1000 to 10000 nM. For the same molecule, the AC50 (HTT mRNA [2]; [4]) was over 10000 nM, the AC50 (MYB mRNA; [5]) was 100 to 1000 nM and the IC50 (MYB mRNA; [6]) was 100 to 1000 nM. The IC50 (MYB mRNA; [7]) was 100 to 1000 nM and the IC50 (Target C mRNA; Homo sapiens) was over 10000 nM.
Molecule Cc1cn2cc(NC(=O)c3ccc(N4CCNCC4)n4cc(C)nc34)cc(F)c2n1 [Compound 908] has an IC50 (HTT mRNA [1]; Homo sapiens) of 100 to 1000 nM, an IC50 (SMN2 mRNA; Homo sapiens) of under 100 nM and an AC50 (HTT mRNA [2]; [8]) of 100 to 1000 nM. It also gave an IC50 (HTT mRNA [2]; [9]) of 100 to 1000 nM, an IC50 (MYB mRNA; [10]) of under 100 nM and an IC50 (MYB mRNA; [7]) of under 100 nM. It also gave an AC50 (MYB mRNA; [11]) of under 100 nM and an IC50 (Target C mRNA; Homo sapiens) of 1000 to 10000 nM.
CCc1cc2c(N3CCNCC3)ccc(C(=O)Nc3cc(F)c4nc(C)cn4c3)n2n1 [Compound 916] showed an IC50 (HTT mRNA [1]) of 100 to 1000 nM, an IC50 (SMN2 mRNA) of under 100 nM and an AC50 (HTT mRNA [2]; Table 3B, alternative junction mRNA, read-out: HTT AJ (AC50, increase in AJ mRNA)) of 100 to 1000 nM. The IC50 (HTT mRNA [2]; Table 3B, canonical junction mRNA, read-out: HTT CJ (IC50, decrease in CJ mRNA)) was 100 to 1000 nM, the AC50 (MYB mRNA; Table 3B, alternative junction mRNA, RT-qPCR, read-out: MYB AJ (AC50, increase in AJ mRNA)) was under 100 nM and the IC50 (MYB mRNA; Table 3B, canonical junction mRNA, RT-qPCR, read-out: MYB CJ (IC50, decrease in CJ mRNA)) was under 100 nM. For the same molecule, the IC50 (MYB mRNA; Tables 4A/4B, canonical junction qPCR panel, read-out: MYB (IC50, decrease in CJ mRNA, gene panel)) was under 100 nM and the IC50 (Target C mRNA) was 100 to 1000 nM.
Cc1cn2cc(NC(=O)c3ncc(N4CCNCC4)c4cn(C)nc34)cc(F)c2n1 [Compound 932] gave an IC50 (HTT mRNA [1]; Homo sapiens) of over 10000 nM, an IC50 (SMN2 mRNA; Homo sapiens) of 100 to 1000 nM and an AC50 (HTT mRNA [2]; [8]) of over 10000 nM. For the same molecule, the IC50 (HTT mRNA [2]; [9]) was over 10000 nM, the IC50 (MYB mRNA; [10]) was 1000 to 10000 nM and the IC50 (MYB mRNA; [7]) was 1000 to 10000 nM. For the same molecule, the AC50 (MYB mRNA; [11]) was 1000 to 10000 nM and the IC50 (Target C mRNA; Homo sapiens) was over 10000 nM.
Cc1cn2cc(NC(=O)c3ccc(N4CCNCC4)c4cc(C)nn34)cc(F)c2n1 [Compound 940] gave an IC50 (HTT mRNA [1]; Homo sapiens) of under 100 nM, an IC50 (SMN2 mRNA; Homo sapiens) of under 100 nM and an AC50 (HTT mRNA [2]; [8]) of 100 to 1000 nM. The IC50 (HTT mRNA [2]; [9]) was under 100 nM, the IC50 (MYB mRNA; [10]) was under 100 nM and the IC50 (MYB mRNA; [7]) was under 100 nM. For the same molecule, the AC50 (MYB mRNA; [11]) was under 100 nM and the IC50 (Target C mRNA; Homo sapiens) was 100 to 1000 nM.
With Cc1cn2cc(NC(=O)c3ccc(N4CCNCC4)c4csnc34)cc(F)c2n1 [Compound 941] the IC50 (HTT mRNA [1]; Homo sapiens) was 100 to 1000 nM, the IC50 (SMN2 mRNA; Homo sapiens) was under 100 nM and the AC50 (HTT mRNA [2]; [8]) was 100 to 1000 nM. For the same molecule, the IC50 (HTT mRNA [2]; [9]) was 100 to 1000 nM, the IC50 (MYB mRNA; [10]) was under 100 nM and the IC50 (MYB mRNA; [7]) was under 100 nM. The AC50 (MYB mRNA; [11]) was under 100 nM and the IC50 (Target C mRNA; Homo sapiens) was 1000 to 10000 nM.
With CCNC1CCN(c2ccc(C(=O)Nc3cc(F)c4nc(C)cn4c3)c3nc(CC)cn23)C1 (stereo not shown) [Compound 942] the IC50 (HTT mRNA [1]; Homo sapiens) was 100 to 1000 nM, the IC50 (SMN2 mRNA; Homo sapiens) was under 100 nM and the AC50 (HTT mRNA [2]; [8]) was 1000 to 10000 nM. It also gave an IC50 (HTT mRNA [2]; [9]) of 100 to 1000 nM, an IC50 (MYB mRNA; [10]) of 100 to 1000 nM and an IC50 (MYB mRNA; [7]) of 100 to 1000 nM. It also gave an AC50 (MYB mRNA; [11]) of 100 to 1000 nM and an IC50 (Target C mRNA; Homo sapiens) of 1000 to 10000 nM.
Molecule CCc1cn2c(N3CCNCC3)ccc(C(=O)Nc3cc(F)c4nc(C)cn4c3)c2n1 [Compound 943] has an IC50 (HTT mRNA [1]; Homo sapiens) of 100 to 1000 nM, an IC50 (SMN2 mRNA; Homo sapiens) of under 100 nM and an AC50 (HTT mRNA [2]; [8]) of 1000 to 10000 nM. It also gave an IC50 (HTT mRNA [2]; [9]) of 100 to 1000 nM, an IC50 (MYB mRNA; [10]) of under 100 nM and an IC50 (MYB mRNA; [7]) of under 100 nM. The AC50 (MYB mRNA; [11]) was under 100 nM and the IC50 (Target C mRNA; Homo sapiens) was 1000 to 10000 nM.
Molecule CCNC1CCN(c2ccc(C(=O)Nc3cc(F)c4nc(C)cn4c3)c3nc(CC)sc23)C1 (stereo not shown) [Compound 944] has an IC50 (HTT mRNA [1]; Homo sapiens) of 1000 to 10000 nM, an IC50 (SMN2 mRNA; Homo sapiens) of under 100 nM and an AC50 (HTT mRNA [2]; [8]) of 1000 to 10000 nM. It also gave an IC50 (HTT mRNA [2]; [9]) of 1000 to 10000 nM, an IC50 (MYB mRNA; [10]) of 100 to 1000 nM and an IC50 (MYB mRNA; [7]) of 100 to 1000 nM. It also gave an AC50 (MYB mRNA; [11]) of 100 to 1000 nM and an IC50 (Target C mRNA; Homo sapiens) of 1000 to 10000 nM.
